Source: patent publication US12252488B2 (Nimbus Saturn, Inc., priority 2021, dated 2025)

Target: T1, HPK1 (Homo sapiens, UniProt Q92918)
T1 construct: purchased Invitrogen
Experiment: HPK1 biochemical enzyme assay (microfluidic mobility shift assay)
Details: 1000 uM (1 mM) ATP; Caliper mobility shift; 1.5 nM HPK1; 30 min preincubation; read-out: HPK1 1000UMATP caliper IC50
Procedure: Example 33. HPK1 Biochemical Enzyme Assay
HPK1 biochemical enzyme assay: HPK1 enzyme inhibition was measured using a microfluidic mobility shift assay. Reactions were performed in a 384-well plate, containing 1.5 nM HPK1 (Invitrogen), in assay buffer (Carna Biosciences; pH 7.4). Test compounds were titrated in ten point curves (top final assay concentration 3 μM), and preincubated with enzyme/substrate mix for 30 min prior to initiation of the reaction by addition of ATP (1 mM final concentration) and substrate (1 μM final concentration; Carna Biosciences) diluted in assay buffer supplemented by MgCl2 (final assay concentration of 5 mM). Following 60 min incubation at RT, the reaction was terminated by addition of 60 μl/well termination buffer (Carna Biosciences) and signal determination using a Caliper EZ Reader (Perkin Elmer, UK).
The compound numbers correspond to the compound numbers in Table 1. Compounds having an activity designated as “A” provided an IC50≤100 nM; compounds having an activity designated as “B” provided an IC50>100 nM and ≤1,000 nM; compounds having an activity designated as “C” provided an IC50>1,000 nM.

T1 sequence (Q92918 whole entry): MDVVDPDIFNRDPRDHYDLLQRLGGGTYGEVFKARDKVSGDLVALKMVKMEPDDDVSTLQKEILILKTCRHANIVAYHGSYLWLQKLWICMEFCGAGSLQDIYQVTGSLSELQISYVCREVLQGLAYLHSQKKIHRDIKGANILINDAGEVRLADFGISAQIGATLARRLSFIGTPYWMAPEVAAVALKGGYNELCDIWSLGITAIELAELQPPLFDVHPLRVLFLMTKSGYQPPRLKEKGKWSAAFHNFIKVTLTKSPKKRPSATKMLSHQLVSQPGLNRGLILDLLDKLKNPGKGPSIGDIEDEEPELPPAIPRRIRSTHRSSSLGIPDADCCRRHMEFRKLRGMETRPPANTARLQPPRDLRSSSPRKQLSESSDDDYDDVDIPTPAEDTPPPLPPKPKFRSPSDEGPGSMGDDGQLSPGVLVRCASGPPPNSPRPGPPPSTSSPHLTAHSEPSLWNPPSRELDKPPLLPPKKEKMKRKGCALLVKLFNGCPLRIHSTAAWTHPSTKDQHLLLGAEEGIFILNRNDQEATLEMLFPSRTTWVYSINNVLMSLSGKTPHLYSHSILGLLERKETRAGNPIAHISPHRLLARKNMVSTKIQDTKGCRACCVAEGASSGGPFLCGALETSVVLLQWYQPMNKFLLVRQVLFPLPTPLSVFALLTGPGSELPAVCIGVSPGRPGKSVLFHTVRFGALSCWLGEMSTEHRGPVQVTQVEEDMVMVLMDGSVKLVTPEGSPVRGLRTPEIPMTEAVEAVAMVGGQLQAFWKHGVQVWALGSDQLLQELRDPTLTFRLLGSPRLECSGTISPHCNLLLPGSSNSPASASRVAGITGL

Row | IC50 | SMILES
1 | 100 to 1000 nM | CCCc1cc(Nc2ccc(N3CCC(O)CC3)cn2)c2c(=O)[nH]cnc2n1 [I-60, 5-[[5-(4-hydroxy-1-piperidyl)-2-pyridyl]amino]-7-propyl-3H-pyrido[2,3-d]pyrimidin-4-one]
2 | 100 to 1000 nM | CC(=O)N1CCC(c2cc(Nc3ccc(N4CCC(O)CC4)cn3)c3c(=O)[nH]ccc3n2)CC1 [I-63, 2-(1-acetyl-4-piperidyl)-4-[[5-(4-hydroxy-1-piperidyl)-2-pyridyl]amino]-6H-1,6-naphthyridin-5-one]
3 | 100 to 1000 nM | O=c1[nH]ccc2nc(-c3ccccc3F)cc(Nc3ccc(N4CCC(O)CC4)cn3)c12 [I-64, 2-(2-fluoro-phenyl)-4-[[5-(4-hydroxy-1-piperidyl)-2-pyridyl]amino]-6H-1,6-naphthyridin-5-one]
4 | 100 to 1000 nM | CCOc1ccc(F)c(-c2cc(Nc3ccc(N4CCC(O)CC4)cn3)c3c(=O)[nH]ccc3n2)c1 [I-66, 2-(5-ethoxy-2-fluoro-phenyl)-4-[[5-(4-hydroxy-1-piperidyl)-2-pyridyl]amino]-6H-1,6-naphthyridin-5-one]
5 | 100 to 1000 nM | Cc1cccc(-c2cc(Nc3ccc(N4CCC(O)CC4)cn3)c3c(=O)[nH]ccc3n2)c1F [I-68, 2-(2-fluoro-3-methyl-phenyl)-4-[[5-(4-hydroxy-1-piperidyl)-2-pyridyl]amino]-6H-1,6-naphthyridin-5-one]
6 | 100 to 1000 nM | CC(C)(O)c1ccc(-c2cc(Nc3ccc(N4CCC(O)CC4)cn3)c3c(=O)[nH]ccc3n2)c(F)c1 [I-69, 2-[2-fluoro-4-(1-hydroxy-1-methyl-ethyl)phenyl]-4-[[5-(4-hydroxy-1-piperidyl)-2-pyridyl]amino]-6H-1,6-naphthyridin-5-one]
7 | 100 to 1000 nM | NC(=O)c1ccc(-c2cc(Nc3ccc(N4CCC(O)CC4)cn3)c3c(=O)[nH]ccc3n2)c(F)c1 [I-72, 3-fluoro-4-[4-[[5-(4-hydroxy-1-piperidyl)-2-pyridyl]amino]-5-oxo-6H-1,6-naphthyridin-2-yl] benzamide]

More lines, now with the values behind:

Row | SMILES | IC50
8 | O=c1[nH]ccc2nc(-c3ccc(OCc4ccncc4)cc3F)cc(Nc3ccc(N4CCC(O)CC4)cn3)c12 [I-61, 2-[2-fluoro-4-(4-pyridyl-methoxy)phenyl]-4-[[5-(4-hydroxy-1-piperidyl)-2-pyridyl]amino]-6H-1,6-naphthyridin-5-one] | 100 to 1000 nM
9 | CN(C)C(=O)c1ccc(-c2cc(Nc3ccc(N4CCC(O)CC4)cn3)c3c(=O)[nH]ccc3n2)c(F)c1 [I-62, 3-fluoro-4-[4-[[5-(4-hydroxy-1-piperidyl)-2-pyridyl]amino]-5-oxo-6H-1,6-naphthyridin-2-yl]-N,N-dimethyl-benzamdie] | 100 to 1000 nM
10 | COc1cccc(-c2cc(Nc3ccc(N4CCC(O)CC4)cn3)c3c(=O)[nH]ccc3n2)c1F [I-65, 2-(2-fluoro-3-methoxy-phenyl)-4-[[5-(4-hydroxy-1-piperidyl)-2-pyridyl]amino]-6H-1,6-naphthyridin-5-one] | 100 to 1000 nM
11 | CC(C)Oc1ccc(F)c(-c2cc(Nc3ccc(N4CCC(O)CC4)cn3)c3c(=O)[nH]ccc3n2)c1 [I-67, 2-(2-fluoro-5-isopropoxy-phenyl)-4-[[5-(4-hydroxy-1-piperidyl)-2-pyridyl]amino]-6H-1,6-naphthyridin-5-one] | 100 to 1000 nM
12 | CNC(=O)c1ccc(-c2cc(Nc3ccc(N4CCC(O)CC4)cn3)c3c(=O)[nH]ccc3n2)c(F)c1 [I-70, 3-fluoro-4-[4-[[5-(4-hydroxy-1-piperidyl)-2-pyridyl]amino]-5-oxo-6H-1,6-naphthyridin-2-yl]-N-methyl-benzamide] | 100 to 1000 nM
13 | O=C(c1ccc(-c2cc(Nc3ccc(N4CCC(O)CC4)cn3)c3c(=O)[nH]ccc3n2)c(F)c1)N1CCCCC1 [I-71, 2-[2-fluoro-4-(piperidine-1-carbonyl)phenyl]-4-[[5-(4-hydroxy-1-piperidyl)-2-pyridyl]amino]-6H-1,6-naphthyridin 5-one] | 100 to 1000 nM
14 | CN(C)Cc1ccc(-c2cc(Nc3ccc(N4CCC(O)CC4)cn3)c3c(=O)[nH]ccc3n2)c(F)c1 [I-74, 2-[4-[(dimethyl-amino)methyl]-2-fluoro-phenyl]-4-[[5-(4-hydroxy-1-piperidyl)-2-pyridyl]amino]-6H-1,6-naphthyridin-5-one] | ≤ 100 nM
